Tests used:
[1] = Population PK model and simulations; parameters: species or system human
Description: PK/PD modeling and simulation—In the PK/PD model, a two-compartment population PK (popPK) model with a first-order absorption and elimination was used to fit the PK data. The model was parameterized in terms of apparent clearance (CL/F), apparent volume of distribution of the central compartment (V2/F), apparent inter-compartmental clearance (Q/F), apparent volume of distribution of the peripheral compartment (V3/F), and first-order absorption rate constant (Ka). Inter-individual variability was included on CL/F, V2/F, Q/F, and Ka. Following the development of the popPK model, the PK/PD model was subsequently developed based on individual estimates from the popPK model.
Once MAD data were available, the semi-mechanistic PK/PD model was updated with the acquired data from SAD and MAD cohorts. All covariate effects in the popPK analysis were evaluated on clearance from the central compartment (CL/F) only, except for body weight, food effect, and drug formulation. Body weight was included in the structural model (as a covariate on the CL/F, V2/F, Q/F). […] Food effect and drug formulation were evaluated on Ka. The covariates model selection was conducted using a full-model approach with backward elimination (nominal p<0.001, i.e., a change in the objective function value of 10.83 with 1 degree of freedom). A covariate model was initially developed using all statistically significant covariates of interest, and was then reduced by removing covariates with effect sizes less than 10% of the typical values of the respective PK parameters. This reduced model was regarded as the final mode which was subsequently used for PD model. Model selection was determined by graphical assessment, statistically significant difference in the objective function value between competing models. The performance of the final model was evaluated using a prediction-corrected visual predictive check (pcVPC; n=1000 replicates).
The semi-mechanistic PK/PD model was performed using NONMEM (version 7.3.0, ICON Development Solutions LLC, Ellicott City, MD, United States). The use of NONMEM, including model qualification procedures, were facilitated within the environment of Perl-speaks-NONMEM (version 4.6.0, a compatible front-end program for NONMEM. Data management, exploratory analyses, diagnostic graphics, and post processing of the data and NONMEM outputs were performed using R (version 3.4.1, The R Project for Statistical Computing, statistical software). All analyses were performed in a validated environment, High Performance Pharmacometrics Platform System (Rudraya Sonic version 4 or higher), based on Good Automated Manufacturing Practice and in accordance with 21 CFR Part 11 and Good Clinical Practice regulations.

[2] = Blood-to-plasma concentration ratio; format: in vitro ADME; settings: human, fresh blood
[3] = Blood-to-plasma concentration ratio; format: in vitro ADME; settings: dog, fresh blood
[4] = target: T1, BTK (Rattus norvegicus, UniProt Q5S255); assay: Rat in vivo BTK target engagement (occupancy ELISA in blood); parameters: species or system female Wistar rat; settings: read-out: BTK target occupancy after 8 and 24 hours
T1 construct: Cell lysates were prepared from the blood samples using cell lysis buffer; from tissue; host or cells: blood of female Wistar rats (cell lysates)
Method: In Vivo BTK Engagement—BTK receptor occupancy and plasma concentrations of the Compound of Formula (III) increased in a dose-dependent manner following a single oral dose in rat (FIG. 15). Doses of 2 mg/kg or higher consistently achieved sustained target occupancy after 8 and 24 hours (>75% following a 2 mg/kg dose, ≥88% following a 3 mg/kg dose, and ≥99% following a 10 mg/kg dose). Target occupancy was maintained at 24 h even after parent drug plasma levels decreased, indicating persistent BTK occupancy, a hallmark of the covalent mechanism. Considering that 70% to 80% BTK target engagement for 7 to 8 hours in a chronic dosing regimen is associated with anti-inflammatory activity in rodent efficacy models, 75% target engagement at 7.5 hours was identified as the desired level of target engagement.
BTK Occupancy PK/PD Model—Rat in vivo target engagement—Two studies were conducted in which the compound of Formula (III) formulated in 20% HPCD, was administered orally to female Wistar rats. In study 1, compound of Formula (III) was evaluated at oral doses of 0.3, 1, 3 and 10 mg/kg; in study 2, compound of Formula (III) was evaluated at oral doses of 0.1, 0.3, 1, 2 and 3 mg/kg. (n=4/group for both studies). In both experiments, at assigned time points postdose (0.5, 4, 8 and 24 hr), animals were anesthetized and approximately 140 μL of blood was obtained by retro-orbital bleeding into heparinized tubes. These samples were split into two aliquots, with one aliquot used to measure compound levels by liquid chromatography mass spectrophotometry method and the other aliquot to assess BTK occupancy by a target-site occupancy ELISA.
Cell lysates were prepared from the blood samples using cell lysis buffer (BD Pharmingen™, BD Biosciences). Free BTK protein in each sample is tagged by the addition a biotinylated probe (1 μL of a 25 μM working solution per sample, final concentration 250 nM), which is then captured on the surface of a streptavidin coated microtiter plate and detected by ELISA using an antibody specific for BTK (BD Transduction). […]

[5] = tested on: IL-6 secretion, ABC-DLBCL OCI-LY-10 cells; assay: IL-6 secretion by OCI-LY-10 cells (MesoScale); format: cell-based; settings: Homo sapiens, OCI-Ly10; 6 independent experiments; read-out: IC50, IL-6 secretion (mean±SEM)
Method: (§1) In Vitro Activity in DLBCL Cell Lines—NFκB signaling regulates the secretion of multiple cytokines, including interleukin (IL)-6 and IL-10. Secretion of IL-6 and -10 by ABC-DLBCL OCI-LY-10 cells was measured using a MesoScale assay. […] To determine the anti-proliferative activity of the compound of formula (III), several ABC-DLBCL cell lines—OCI-LY-3, OCI-LY-10, TMD8, and HBL-1—were treated for 8 days. […] The OCI-LY-3 cell line, which harbors a CARD11 mutation downstream of BTK in the NF-κB signaling pathway, was completely insensitive to the compound of Formula (III) up to 2 μM. In 2 experiments, OCI-LY-3 cells were insensitive to the compound of Formula (III) at all concentrations up to 10 μM.

[6] = tested on: IL-10 secretion, ABC-DLBCL OCI-LY-10 cells; assay: IL-10 secretion by OCI-LY-10 cells (MesoScale); format: cell-based; settings: Homo sapiens, OCI-Ly10; 6 independent experiments; read-out: IC50, IL-10 secretion (mean±SEM)
Method: as §1

[7] = model (B), all SAD and MAD data

T1 sequence (Q5S255 1-660): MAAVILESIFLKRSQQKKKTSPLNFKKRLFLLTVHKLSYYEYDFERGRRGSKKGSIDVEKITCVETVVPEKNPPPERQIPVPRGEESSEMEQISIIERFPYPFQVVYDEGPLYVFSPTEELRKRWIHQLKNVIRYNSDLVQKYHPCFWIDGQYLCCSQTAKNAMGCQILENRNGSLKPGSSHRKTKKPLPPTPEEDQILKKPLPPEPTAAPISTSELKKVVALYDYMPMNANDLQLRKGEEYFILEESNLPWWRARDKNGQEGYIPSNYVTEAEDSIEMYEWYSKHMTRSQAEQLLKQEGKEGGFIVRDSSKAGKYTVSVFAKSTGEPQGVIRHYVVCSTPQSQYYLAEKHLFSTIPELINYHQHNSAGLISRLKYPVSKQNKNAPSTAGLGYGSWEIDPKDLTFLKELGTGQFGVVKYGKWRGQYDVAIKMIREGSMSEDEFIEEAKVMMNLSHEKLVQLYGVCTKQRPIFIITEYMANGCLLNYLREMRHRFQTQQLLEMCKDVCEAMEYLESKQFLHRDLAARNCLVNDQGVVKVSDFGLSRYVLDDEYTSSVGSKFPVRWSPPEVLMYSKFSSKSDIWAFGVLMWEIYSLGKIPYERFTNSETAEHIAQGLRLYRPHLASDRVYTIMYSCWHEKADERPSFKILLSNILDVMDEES

C=CC(=O)N[C@H]1CCC[C@H]1NC(=O)c1sc2nccc3c2c1NC(=O)N3c1cnc(CC(C)C)cc1C (atropisomer, axis not shown) [compound of Formula (III), N-((1R,2S)-2-Acrylamidocyclopentyl)-5-(S)-(6-isobutyl-4-methylpyridin-3-yl)-4-oxo-4,5-dihydro-3H-1-thia-3,5,8-triazaacenaphthylene-2-carboxamide]
CL/F, popPK estimate ([1]; model (A), first 5 SAD cohorts): 49.4 L/h | Ka, popPK estimate ([1]; model (A), first 5 SAD cohorts): 1.94 h⁻¹ | Q/F, popPK estimate ([1]; model (A), first 5 SAD cohorts): 1.57 L/h | V1/F, popPK estimate ([1]; model (A), first 5 SAD cohorts): 108.9 L | CL/F, popPK estimate [1, 7]: 62.4 L/h | FORM = Oral Capsule on Ka (covariate effect) [1, 7]: 0.325 | Ka, popPK estimate [1, 7]: 1.97 h⁻¹ | NURT = Fed, standard meal on Ka (covariate effect) [1, 7]: 0.339 | Q/F, popPK estimate [1, 7]: 2.85 L/h | V1/F, popPK estimate [1, 7]: 129.6 L | blood plasma ratio at 1 μM [2]: 0.67 | blood plasma ratio at 1 μM [3]: 0.75 | receptor occupancy at 2 mg/kg ([4]; single oral 2 mg/kg): > 75% | receptor occupancy at 3 mg/kg ([4]; single oral 3 mg/kg): ≥ 88% | receptor occupancy at 10 mg/kg ([4]; single oral 10 mg/kg): ≥ 99% | IC50 [5]: 16 ± 3 nM | IC50 [6]: 18 ± 7 nM

From patent US12622910B2, “Inhibitors of Bruton's tyrosine kinase and methods of their use” (Janssen Pharmaceutica NV, priority 2021, dated 2026)
